Results as given in patent US10500218B2, “Uptake of pharmaceuticals within cyclodextrin-based porous materials” (Northwestern University, priority 2015, dated 2019).

Columns and labels:
[1] = test system: MDA-MB-231 (human breast adenocarcinoma); assay: Growth inhibition / cell viability (Cell Titer-Glo) on MDA-MB-231 cells; type: cell-based; details: 48 hours, tested up to 100 μM
Description: (§1) Toxicity studies of both CD-MOF-1 and ibuprofen were carried out in vitro on two cell lines: MCF-10A (human mammary epithelial cells) (FIG. 4A) and MDA-MB-231 (human breast adenocarcinoma) (FIG. 4B). For both cell lines, no IC50 value could be obtained for CD-MOF-1, and ibuprofen up to concentrations of 100 μM.
(§2) Cell Studies. For cell studies, CD-MOF-1 was solubilized in H2O and the free-acid of ibuprofen was solubilized in Me2SO. The growth inhibition of various cell lines was determined according to the protocols from the NCl/NIH Developmental Therapeutics Program, and in collaboration with the Northwestern University Developmental Therapeutics Core Facility. Cells were plated in triplicate in 96 well plates. The cells were plated at densities of 10,000 per well in 90 μL for MDA-MB-231; and 25,000 per well in 90 μL for MCF-10A. The MDA-MB-231 cells were cultured in RPMI1640 media supplemented with 10% Fetal Bovine Serum (FBS), and 2 mM glutamine with 5% CO2 at 37° C. For experiments, 5% of FBS and 50 μg/mL of gentamycin were used. […]
(§3) Time zero cells (Tz) were processed according to the Promega Cell Titer Glo, and the following day Cell Titer-Glo Luminescent Cell Viability Assay. […] The plates were shaken for 2 min and allowed to sit for activation prior to reading for 10 min. Plates were read on a BioTek reader using the luminescence program.

[2] = test system: MCF-10A (human mammary epithelial cells); assay: Growth inhibition / cell viability (Cell Titer-Glo) on MCF-10A cells; type: cell-based; details: 48 hours, tested up to 100 μM
Description: as §1, §2, §3

[3] = Storage under ambient conditions: hygroscopicity and crystallinity (PXRD); type: physicochemical; details: atmospheric / ambient conditions, several months for the CD-MOF-1 formulation
Description: FIG. 3A depicts powder X-ray diffraction (PXRD) of freshly prepared CD-MOF-1 formulations of ibuprofen prepared by co-crystallization from the potassium salt of ibuprofen and adsorption of the deprotonated acid form of ibuprofen within a pre-existing CD-MOF-1, compared to the predicted I432 diffraction pattern.
Three formulations were tested: ibuprofen, potassium salt, and a physical mixture of 23 wt. % ibuprofen, potassium salt with γ-CD (which is analogous to a stoichiometric loading of ibuprofen within CD-MOF-1 created by co-crystallization) were used as control samples, and the third formulation contained CD-MOF-1 loaded with 26 wt. % ibuprofen by the adsorption protocol. The potassium salt of ibuprofen was considered to be the most appropriate control form of ibuprofen in this study, as the results of the solvent-dependent adsorption loading of ibuprofen is evidence that an anion exchange process was occurring within CD-MOf-1, i.e., deprotonation of the free-acid form of ibuprofen, which was facilitated by water-miscible polar solvents. […] It is used, however, in rapid release gelatin capsules.

Compound	IC50 [1]	IC50 [2]	hygroscopicity [3]
CC(C)Cc1ccc(C(C)C(=O)O)cc1 (racemic) [ibuprofen]	> 100 µM	> 100 µM	
CC(C)Cc1ccc(C(C)C(=O)[O-])cc1.[K+] (stereo not drawn) [potassium salt of ibuprofen, ibuprofen, potassium salt]			very hygroscopic
